Measured values reported in patent publication US20080175935A1, “Method to Treat Skin Conditions with Narcissus Tazetta Bulb Extract” (NuSkin International, Inc., priority 2004, published 2008).
Entries after “also recorded” stand apart in the source; their conditions may differ.

Tests used:
[1] = system: arNOX; assay: arNOX assay: ferricytochrome c reduction (superoxide production) by buffy coats; format: cell-based, human; settings: for arNOX inhibition, activity at a dilution of 1:50: dilution 1:50 (solids 2 mM), buffy coats from a person; for arNOX inhibition, activity at a dilution of 1:500: dilution 1:500; for arNOX inhibition, activity at a dilution of 1:500 / Rate of reduction of ferricytochrome c, +100 μM Q10: buffy coats; for oscillating activity of buffy coats and sera of aged individuals: FIG. 2, SOD 60 units or coenzyme Q 450 μg added after 45 min, 70-100 y; for Rate of reduction of ferricytochrome c, +100 μM Q10: mean ± SD, negative rates statistically zero
Description: Reduction of ferric cytochrome c by superoxide was employed as a standard measure of superoxide formation (Mayo, L. A. and Cumutte, J. (1990) Meth. Enzyme. 186, 567-575. 7. Butler, J, Koppenol, W. H. and Margollash, E. (1982) J. Biol. Chem. 257, 10747). If superoxide dismutase was added to remove the superoxide as it was generated, the reduction of ferric cytochrome c was prevented to confirm that ferric cytochrome c reduction in the assay was due to superoxide.
Buffy coats were pooled from aged individuals (70-100 y) and the reduction of ferric cytochrome c was observed (FIG. 2) with an oscillating activity. […] This oscillatory reduction of cytochrome c was absent from buffy coat fractions from younger (20-40 y) individuals (FIGS. 2A and 2B). […] The rate of coenzyme Q inhibited ferric cytochrome c reduction was 7-fold greater in buffy coat fractions of 90-94 y individuals as compared to 80-89 y individuals (Table 1). Buffy coats of less than 65 y individuals lacked the activity.
The compounds listed above in Table 4 were tested initially in the standard arNOX assay at a dilution of 1:50. Solids were prepared in water at an initial concentration of approximately 100 mM and then also tested at a dilution of 1:50, i.e., 2 mM. All compounds were evaluated using human buffy coats prepared from a person. Several compounds were evaluated with sera from aged patients as follow: IBR-DORMIN® Narcissus tazetta bulb extract (person), IBR-TOM® aqueous serum of tomato, available from Israeli Biotechnology Research Ltd. Corporation, Tel Aviv, Israel, (person), L-carnosine (person, person), L-ERGO® synthetically derived 1-ergothioneine, available from OXIS Health Products, Inc., Portland, Oreg. (person). Serum and buffy coats gave consistent results. Compounds active at 1:50 dilutions were reassayed with buffy coats at a dilution of 1:500 and compounds active at 1:500 were reassayed with buffy coats at a dilution of 1:5000.
Details of the assay protocol are as follow. Buffy coats, a mixture of lymphocytes and platelets, were obtained from a commercial supplier. The blood samples were maintained at 4° C. prior to collection and assay. Ca. 10^7 cells were added to each assay. Cell numbers were determined using a hemocytometer.
(§1) Measurement of arNOX activity based on ferricytochrome c reduction as a measure of superoxide production were taken. The rate of reduction of ferricytochrome c was determined from the increase in absorbance at 550 nm with 540 nm as reference. This is a widely accepted method when coupled to superoxide dismutase inhibition for the measurement of superoxide generation. The assay consists of 150 μl (2 mg/ml) of oxidized ferricytochrome c solution and 150 μl serum or 40 μl buffy coats in PBSG buffer (8.06 g NaCl, 0.2 g KCl, 0.18 g Na2HPO4, 0.26 g KH2PO4, 0.13 g CaCl2, 0.1 g MgCl2, 1.35 g glucose dissolved in 1000 ml deionized water, adjusted to pH 7.4, filtered and stored at 4° C.). Rates were determined using a SLM Aminco DW-2000 spectrophotometer (Milton Roy, Rochester, N.Y., USA) in the dual wave length mode of operation with continuous measurements over 1 min every 1.5 min. After 45 min, test compound was added and the reaction was continued for 45 min. A millimolar extinction coefficient of 19.1 cm^−1 was used for reduced ferricytochrome c. (D. M. Morré, F. Guo and D. J. Morré, 2003, Mol. Cell. Biochem. 254: […]).

[2] = system: arNOX; assay: arNOX assay: ferricytochrome c reduction (superoxide production) in sera; format: biochemical, human; settings: for serum activity (cytochrome c reduction) in response to added reagent: sera of aged individuals; for oscillating activity in sera of aged individuals: FIG. 2G (SOD), FIG. 2H (coenzyme Q); for Inhibition by superoxide dismutase: sera from aged individuals; for Superoxide production (reduction of ferricytochrome c), with superoxide dismutase: sera of aged (80-98 y) individuals, n = 10; for amount at which inhibition of age-related cytochrome c reduction reaches a plateau: sera; for further inhibition of ferric cytochrome c reduction when added after maximal inhibition by the other agent: serum, SOD 30 units and coenzyme Q 450 μg added sequentially, 300 sec; for inhibition of ferric cytochrome c reduction activity: untreated serum samples
Source text: Reduction of ferric cytochrome c by superoxide was employed as a standard measure of superoxide formation (Mayo, L. A. and Cumutte, J. (1990) Meth. Enzyme. 186, 567-575. 7. Butler, J, Koppenol, W. H. and Margollash, E. (1982) J. Biol. Chem. 257, 10747).
Assays of ferric cytochrome c reduction in sera compared 53 samples from young (20 to 40 y) and 65 samples from aged (80 to 100) individuals. […]
as §1

[3] = system: NADH cytochrome c reductase; assay: NADH-cytochrome c reductase activity in serum; format: biochemical, human; settings: serum of either young or aged individuals
Source text: (§2) However, the NADH-stimulated activity was about 4 nmoles/min/ml of sera for sera of both young and aged individuals. The aging-specific increment of ca. 2 nmoles/min/mg protein was observed both in the presence or absence of NADH.

[4] = system: NADH cytochrome c reductase; assay: NADH cytochrome c reductase of pig liver microsomes; format: biochemical
Source text: as §2

## CCCOC(=O)c1ccc(O)cc1 [propylparaben, Propylparaben]
[1]
  arNOX inhibition, activity at a dilution of 1:50: active
  arNOX inhibition, activity at a dilution of 1:500: inactive

## (−)-epigallocatechin gallate
[2]
  response of arNOX to the drug: does not respond

## Cc1cc(-c2ccccc2)c2ccc3c(-c4ccccc4)cc(C)nc3c2n1 [bathocuproene]
[2]
  serum activity (cytochrome c reduction) in response to added reagent: unaffected

## Cc1cc(-c2ccc(S(=O)(=O)O)cc2)c2ccc3c(-c4ccc(S(=O)(=O)O)cc4)cc(C)nc3c2n1 [bathocuproenedisulforiate]
[2]
  serum activity (cytochrome c reduction) in response to added reagent: unaffected

## Catalase
[2]
  serum activity (cytochrome c reduction) in response to added reagent: without effect

## O=C(O)c1cc[c]([Hg][Cl])cc1 [p-chloromercuribenzoate]
[2]
  serum activity (cytochrome c reduction) in response to added reagent: inhibited

## superoxide dismutase
[1]
  oscillating activity of buffy coats and sera of aged individuals: reduced to basal levels
[1]; buffy coats pooled from aged individuals (70-100 y), SOD added (FIG. 2C)
  oscillating reduction of ferric cytochrome c: inhibited completely
[2]; listed as SOD
  oscillating activity in sera of aged individuals: eliminated; also recorded: completely inhibited
[2]; before proteinase K digestion
  Inhibition by superoxide dismutase: 40%
[2]; following proteinase K digestion
  Inhibition by superoxide dismutase: 60%
[2]; after proteinase K
  Superoxide production (reduction of ferricytochrome c), with superoxide dismutase: 0.22 ± 0.1 Nmoles/min/mi/sera
[2]; no proteinase K
  Superoxide production (reduction of ferricytochrome c), with superoxide dismutase: 0.42 ± 0.1 Nmoles/min/mi/sera
[2]; FIG. 3
  amount at which inhibition of age-related cytochrome c reduction reaches a plateau: 45 units
[2]
  further inhibition of ferric cytochrome c reduction when added after maximal inhibition by the other agent: no further inhibition
[2]; 30 units/ml
  inhibition of ferric cytochrome c reduction activity: 40±10%
[3]
  activity of NADH cytochrome c reductase in serum: Neither SOD nor coenzyme Q inhibited

## NCCC(=O)N[C@@H](Cc1cnc[nH]1)C(=O)O [L-carnosine, L-Carnosine]
[2]; one experiment, serum sample containing 3 arNOX activities
  effect on the arNOX activities of a serum sample: inhibited one arNOX, stimulated a second arNOX and was without effect on a third

## N[C@@H](CCC(=O)N[C@@H](CS)C(=O)NCC(=O)O)C(=O)O [GSH]
[2]
  serum activity (cytochrome c reduction) in response to added reagent: neither stimulates nor inhibits

## COc1cc(CNC(=O)CCCC/C=C/C(C)C)ccc1O [capsaicin]
[2]
  response of arNOX to the drug: does not respond

## [Cu] [copper]
[2]
  serum activity (cytochrome c reduction) in response to added reagent: did not enhance the activity

## COC1=C(OC)C(=O)C(C/C=C(\C)CC/C=C(\C)CC/C=C(\C)CC/C=C(\C)CC/C=C(\C)CC/C=C(\C)CC/C=C(\C)CC/C=C(\C)CC/C=C(\C)CCC=C(C)C)=C(C)C1=O [coenzyme Q, ubiquinone-10]
[1]
  oscillating activity of buffy coats and sera of aged individuals: reduced to basal levels
[1]; buffy coats pooled from aged individuals (70-100 y), 100 μM coenzyme Q (FIG. 2D)
  oscillating reduction of ferric cytochrome c: inhibited completely
[1]; buffy coats pooled from aged individuals (70-100 y), read-out: EC50 for inhibition of oscillating reduction of ferric cytochrome c
  EC50: 20 µM
[1]; group 80-89 years
  Rate of reduction of ferricytochrome c, +100 μM Q10: −0.03 ± 0.02 nmoles min^−1 10^7 cells^−1
[1]; group 90-94 years
  Rate of reduction of ferricytochrome c, +100 μM Q10: −0.07 ± 0.07 nmoles min^−1 10^7 cells^−1
[2]
  oscillating activity in sera of aged individuals: eliminated; also recorded: largely blocked
  further inhibition of ferric cytochrome c reduction when added after maximal inhibition by the other agent: no further inhibition
[2]; FIG. 4
  amount at which inhibition of age-related cytochrome c reduction reaches a plateau: about 450 μg
[2]; 300 μg/ml
  inhibition of ferric cytochrome c reduction activity: 40%
[3]
  activity of NADH cytochrome c reductase in serum: Neither SOD nor coenzyme Q inhibited
[4]
  activity of authentic NADH cytochrome c reductase of pig liver microsomes: did not significantly inhibit

## C[N+](C)(C)[C@@H](Cc1c[nH]c(=S)[nH]1)C(=O)[O-] [L-Ergothioneine]
[1]
  arNOX inhibition, activity at a dilution of 1:50: mixed results
  arNOX inhibition, activity at a dilution of 1:500: inactive

## COC(=O)c1ccc(O)cc1 [methylparaben, Methylparaben]
[1]; buffy coats containing two distinct arNOX activities
  effect on the two distinct arNOX activities of the buffy coats: inhibited one and had no effect on the other
[1]
  arNOX inhibition, activity at a dilution of 1:50: active
  arNOX inhibition, activity at a dilution of 1:500: inactive

## OO [hydrogen peroxide]
[2]; dilute (0.01%) hydrogen peroxide followed by catalase
  serum activity after oxidation of protein SH: inactive
